By Ki is commonly meant the dissociation constant of the complex between target and ligand, obtained from inhibition or displacement.

One test addresses human NK1 receptor (Homo sapiens, UniProt P25103). The test can be described thus: NK1 receptor binding, [3H]substance P displacement, CHO cell membranes. Particulars: first value of the cell pKi NK1/NK3; human NK1 receptor, [3H]substance P.
In test [1] the target is T1, Recombinant human NK3 (hNK3) receptor (Homo sapiens, UniProt P29371).
T1 construct: expressed in transfected cells
T1 sequence (P29371 1-465): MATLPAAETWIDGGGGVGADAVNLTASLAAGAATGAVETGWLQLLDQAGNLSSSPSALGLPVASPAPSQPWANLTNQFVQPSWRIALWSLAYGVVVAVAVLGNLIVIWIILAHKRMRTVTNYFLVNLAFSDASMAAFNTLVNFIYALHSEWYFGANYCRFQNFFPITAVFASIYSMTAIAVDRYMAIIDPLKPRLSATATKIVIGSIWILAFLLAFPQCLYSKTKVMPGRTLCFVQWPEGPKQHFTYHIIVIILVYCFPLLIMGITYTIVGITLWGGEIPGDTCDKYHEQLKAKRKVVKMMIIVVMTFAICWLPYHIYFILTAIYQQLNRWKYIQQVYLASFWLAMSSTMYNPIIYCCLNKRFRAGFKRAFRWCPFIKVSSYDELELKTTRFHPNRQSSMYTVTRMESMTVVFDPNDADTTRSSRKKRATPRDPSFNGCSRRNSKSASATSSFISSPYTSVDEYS
The test can be described thus: NK3 receptor binding, [3H]SR142801 displacement, membrane preparations. Particulars: second value of the cell pKi NK1/NK3; hNK3 receptor, [3H]SR142801. The method in brief: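 Buffer: Tris-HCl 50 mM pH 7.4, BSA 0.1%, MnCl2 4 mM, phosphoramidon 1 μM. ~2.5 μg membrane/well, 90 min RT. NSB with SB222200 (10 μM). Vacuum filtration over 0.3% PEI-treated GF/C, cold Tris/BSA washes, scintillation count; duplicates, ≥2 experiments.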

Sequence of human NK1 receptor (P25103 whole entry): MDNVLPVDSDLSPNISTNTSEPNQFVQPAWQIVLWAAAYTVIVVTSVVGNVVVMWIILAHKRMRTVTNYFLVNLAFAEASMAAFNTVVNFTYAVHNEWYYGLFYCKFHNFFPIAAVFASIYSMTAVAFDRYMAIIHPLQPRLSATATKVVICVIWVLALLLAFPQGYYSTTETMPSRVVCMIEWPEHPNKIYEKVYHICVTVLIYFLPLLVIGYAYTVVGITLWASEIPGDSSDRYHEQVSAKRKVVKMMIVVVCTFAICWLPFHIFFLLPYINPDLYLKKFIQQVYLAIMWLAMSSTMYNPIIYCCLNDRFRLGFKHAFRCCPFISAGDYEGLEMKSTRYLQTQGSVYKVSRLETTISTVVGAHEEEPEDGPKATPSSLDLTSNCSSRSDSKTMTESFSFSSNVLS

In the case of `CN(C(=O)C(C)(C)c1cc(C(F)(F)F)cc(C(F)(F)F)c1)c1cnc(N2CCC(NS(C)(=O)=O)CC2)cc1-c1ccccc1Cl` [Example 113, 2-(3,5-Bis-trifluoromethyl-phenyl)-N-[4′-(2-chloro-phenyl)-4-methanesulfonylamino-3,4,5,6-tetrahydro-2H-[1,2′]bipyridinyl-5′-yl]-N-methyl-isobutyramide], the Ki at human NK1 receptor is 5.75 nM; in test [1] it was 3.47 nM.

On to `CC(=O)NC1CCN(c2cc(-c3ccc(F)cc3C)c(N(C)C(=O)C(C)(C)c3cc(C(F)(F)F)cc(C(F)(F)F)c3)cn2)CC1` [Example 114, N-[4-Acetylamino-4′-(4-fluoro-2-methyl-phenyl)-3,4,5,6-tetrahydro-2H-[1,2′]bipyridinyl-5′-yl]-2-(3,5-bis-trifluoromethyl-phenyl)-N-methyl-isobutyramide], for which the Ki was 0.603 nM on human NK1 receptor and 16.2 nM in test [1].

In the case of `CN(CCO)c1cc(-c2ccc(F)cc2)c(N(C)C(=O)C(C)(C)c2cc(C(F)(F)F)cc(C(F)(F)F)c2)cn1` [Example 115, 2-(3,5-bis-trifluoromethyl-phenyl)-N-{4-(4-fluoro-phenyl)-6-[(2-hydroxy-ethyl)-methyl-amino]-pyridin-3-yl}-N-methyl-isobutyramide], the results for the Ki (on human NK1 receptor; in test [1]) were 1.86 nM and 30.2 nM, respectively.

For `CCN(CCO)c1cc(-c2ccc(F)cc2)c(N(C)C(=O)C(C)(C)c2cc(C(F)(F)F)cc(C(F)(F)F)c2)cn1` [Example 116, 2-(3,5-Bis-trifluoromethyl-phenyl)-N-[6-[ethyl-(2-hydroxy-ethyl)-amino]-4-(4-fluoro-phenyl)-pyridin-3-yl]-N-methyl-isobutyramide], the Ki at human NK1 receptor is 3.89 nM; in test [1], 32.4 nM.

With `Cc1ccccc1-c1cc(N(C)CCO)ncc1N(C)C(=O)C(C)(C)c1cc(C(F)(F)F)cc(C(F)(F)F)c1` [Example 117, 2-(3,5-Bis-trifluoromethyl-phenyl)-N-{6-[(2-hydroxy-ethyl)-methyl-amino]-4-o-tolyl-pyridin-3-yl}-N-methyl-isobutyramide], the values for the Ki (at human NK1 receptor; in test [1]) were 2.09 nM and 3.09 nM, respectively.

`CCN(CCO)c1cc(-c2ccccc2C)c(N(C)C(=O)C(C)(C)c2cc(C(F)(F)F)cc(C(F)(F)F)c2)cn1` [Example 118, 2-(3,5-Bis-trifluoromethyl-phenyl)-N-{6-[ethyl-(2-hydroxy-ethyl)-amino]-4-o-tolyl-pyridin-3-yl}-N-methyl-isobutyramide]: the Ki was 3.63 nM at human NK1 receptor and 4.57 nM in test [1].

For the compound `CCCN(CCO)c1cc(-c2ccccc2C)c(N(C)C(=O)C(C)(C)c2cc(C(F)(F)F)cc(C(F)(F)F)c2)cn1` [Example 119, 2-(3,5-Bis-trifluoromethyl-phenyl)-N-{6-[(2-hydroxy-ethyl)-propyl-amino]-4-o-tolyl-pyridin-3-yl}-N-methyl-isobutyramide], the Ki at human NK1 receptor was 3.98 nM; in test [1], 2.29 nM.

Regarding `Cc1ccccc1-c1cc(NC[C@H](C)O)ncc1N(C)C(=O)C(C)(C)c1cc(C(F)(F)F)cc(C(F)(F)F)c1` [Example 120, (S)-2-(3,5-Bis-trifluoromethyl-phenyl)-N-[6-(2-hydroxy-propylamino)-4-o-tolyl-pyridin-3-yl]-N-methyl-isobutyramide], the Ki on human NK1 receptor was 1.38 nM; in test [1] it was 10 nM.

For `Cc1ccccc1-c1cc(N(CC(C)O)CC(C)O)ncc1N(C)C(=O)C(C)(C)c1cc(C(F)(F)F)cc(C(F)(F)F)c1` (stereo not drawn) [Example 121, N-{6-[Bis-(2-hydroxy-propyl)-amino]-4-o-tolyl-pyridin-3-yl}-2-(3,5-bis-trifluoromethyl-phenyl)-N-methyl-isobutyramide], the results for the Ki (on human NK1 receptor; in test [1]) were 2.88 nM and 11 nM, respectively.

`Cc1ccccc1-c1cc(NC[C@H](O)CO)ncc1N(C)C(=O)C(C)(C)c1cc(C(F)(F)F)cc(C(F)(F)F)c1` [Example 122, (S)-2-(3,5-Bis-trifluoromethyl-phenyl)-N-[6-(2,3-dihydroxy-propylamino)-4-o-tolyl-pyridin-3-yl]-N-methyl-isobutyramide]: the Ki on human NK1 receptor is 1.91 nM; in test [1] it was 19.5 nM.

For the compound `Cc1ccccc1-c1cc(NC[C@@H](O)CO)ncc1N(C)C(=O)C(C)(C)c1cc(C(F)(F)F)cc(C(F)(F)F)c1` [Example 123, (R)-2-(3,5-Bis-trifluoromethyl-phenyl)-N-[6-(2,3-dihydroxy-propylamino)-4-o-tolyl-pyridin-3-yl]-N-methyl-isobutyramide], the figures for the Ki (on human NK1 receptor; in test [1]) were 2.51 nM and 12.6 nM, respectively.

For the compound `CC(O)CN(CC(C)O)c1cc(-c2ccccc2Cl)c(N(C)C(=O)C(C)(C)c2cc(C(F)(F)F)cc(C(F)(F)F)c2)cn1` (stereo not drawn) [Example 124, N-[6-[Bis-(2-hydroxy-propyl)-amino]-4-(2-chloro-phenyl)-pyridin-3-yl]-2-(3,5-bis-trifluoromethyl-phenyl)-N-methyl-isobutyramide], the Ki is 2.63 nM on human NK1 receptor and 13.8 nM in test [1].

On to `CN(C(=O)C(C)(C)c1cc(C(F)(F)F)cc(C(F)(F)F)c1)c1cnc(NC[C@H](O)CO)cc1-c1ccccc1Cl` [Example 125, (S)-2-(3,5-Bis-trifluoromethyl-phenyl)-N-[4-(2-chloro-phenyl)-6-(2,3-dihydroxy-propylamino)-pyridin-3-yl]-N-methyl-isobutyramide], for which the values for the Ki (at human NK1 receptor; in test [1]) were 2.82 nM and 13.8 nM, respectively.

As to `CN(C(=O)C(C)(C)c1cc(C(F)(F)F)cc(C(F)(F)F)c1)c1cnc(NC[C@@H](O)CO)cc1-c1ccccc1Cl` [Example 126, (R)-2-(3,5-Bis-trifluoromethyl-phenyl)-N-[4-(2-chloro-phenyl)-6-(2,3-dihydroxy-propylamino)-pyridin-3-yl]-N-methyl-isobutyramide], the Ki at human NK1 receptor is 2.51 nM; in test [1], 7.76 nM.

Consider `Cc1c(F)cccc1-c1cc(N(CCO)CCO)ncc1N(C)C(=O)C(C)(C)c1cc(C(F)(F)F)cc(C(F)(F)F)c1` [Example 127, N-[6-[Bis-(2-hydroxy-ethyl)-amino]-4-(3-fluoro-2-methyl-phenyl)-pyridin-3-yl]-2-(3,5-bis-trifluoromethyl-phenyl)-N-methyl-isobutyramide], for which the inhibitory constant (Ki) on human NK1 receptor was 2.19 nM; in test [1], 1.51 nM.

Consider `Cc1ccc(F)cc1-c1cc(N(CCO)CCO)ncc1N(C)C(=O)C(C)(C)c1cc(C(F)(F)F)cc(C(F)(F)F)c1` [Example 128, N-[6-[Bis-(2-hydroxy-ethyl)-amino]-4-(5-fluoro-2-methyl-phenyl)-pyridin-3-yl]-2-(3,5-bis-trifluoromethyl-phenyl)-N-methyl-isobutyramide], for which the results for the Ki (at human NK1 receptor; in test [1]) were 2.63 nM and 5.62 nM, respectively.

`CN(C(=O)C(C)(C)c1cc(C(F)(F)F)cc(C(F)(F)F)c1)c1cnc(N2C[C@H](O)C[C@H]2CO)cc1-c1ccccc1Br` [Example 129, (2S,4R)-2-(3,5-Bis-trifluoromethyl-phenyl)-N-[4-(2-bromo-phenyl)-6-(4-hydroxy-2-hydroxymethyl-pyrrolidin-1-yl)-pyridin-3-yl]-N-methyl-isobutyramide]: the Ki on human NK1 receptor was 0.851 nM; in test [1] it was 2.63 nM.

On to `CN(C(=O)C(C)(C)c1cc(C(F)(F)F)cc(C(F)(F)F)c1)c1cnc(N2CC[C@H](O)[C@H]2CO)cc1-c1ccccc1Br` [Example 130, (2R,3S)-2-(3,5-Bis-trifluoromethyl-phenyl)-N-[4-(2-bromo-phenyl)-6-(3-hydroxy-2-hydroxymethyl-pyrrolidin-1-yl)-pyridin-3-yl]-N-methyl-isobutyramide], for which the Ki at human NK1 receptor was 1.66 nM; in test [1], 2.29 nM.

The values above are taken from US8404708B2, “Dual NK1/NK3 receptor antagonists” (Hoffmann-La Roche Inc., priority 2004, dated 2013).
